{
  "source": "paper PMC6753678",
  "about": "“Fueling Open Innovation for Malaria Transmission-Blocking Drugs: Hundreds of Molecules Targeting Early Parasite Mosquito Stages” (Frontiers in Microbiology, 2019)",
  "key": {"[1]": {"tested_on": "3D7-strain P. falciparum asexual parasites", "experiment": "P. falciparum asexual growth inhibition assay (Pf GIA)", "type": "cell-based, Plasmodium falciparum", "details": "Plasmodium falciparum", "procedure,_shortened": "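Parasites at 0.25% parasitemia, 2% hematocrit in Albumax-supplemented RPMI were exposed to compounds in dose response for 72 h at 37°C under 5% CO2/5% O2. Viability was read as LDH activity (NBT/diaphorase, A650 after freeze-thaw). Percent inhibition was calculated against chloroquine and DMSO controls, mean of three biological replicates.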"}, "HepG2 cytotoxicity assay": {"experiment": "HepG2 cytotoxicity assay", "details": "human, HepG2 cells", "procedure,_shortened": "(§1)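 HepG2 cells, 2,500 per well in MEM with 10% FBS and 1% NEAA, exposed to compounds for 48 h at 37°C, 5% CO2. Viability read by fluorescence; percent inhibition relative to 50 μM doxorubicin and DMSO controls.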"}, "HepG2 cells [2]": {"tested_on": "HepG2 cells", "experiment": "HepG2 cytotoxicity assay", "procedure,_shortened": "as §1"}, "[3]": {"tested_on": "P. berghei ookinete development", "details": "read-out: IC50 Pb ODA; dose response, at least triplicate"}, "[4]": {"tested_on": "P. falciparum late stage (stages IV-V) gametocytes", "set-up": "method as in Almela et al 2016", "details": "TCAMS screen comparison; ref Almela et al 2016; read-out: Pf GCT ATP IC50; cited from earlier work"}, "[5]": {"tested_on": "P. falciparum female gametocytes", "set-up": "method as in Miguel-Blanco et al 2017", "details": "TCAMS screen comparison; ref Miguel-Blanco et al 2017; read-out: Pf FGAA IC50; cited from earlier work"}, "[6]": {"tested_on": "P. falciparum oocyst intensity", "set-up": "method as in Colmenarejo et al., 2018", "details": "2 μM; ref Colmenarejo et al., 2018; cited from earlier work"}, "[7]": {"tested_on": "P. falciparum male gametogenesis", "set-up": "method as in Colmenarejo et al., 2018", "details": "2 μM; ref Colmenarejo et al., 2018; cited from earlier work"}, "HepG2 cells [8]": {"tested_on": "HepG2 cells", "details": "cited from earlier work"}, "[9]": {"tested_on": "P. berghei ookinete development", "experiment": "microbe, parasite or virus in culture", "details": "Plasmodium berghei"}, "[10]": {"tested_on": "P. berghei oocyst intensity in Anopheles stephensi mosquitoes", "experiment": "P. berghei standard membrane feeding assay (Pb SMFA)"}, "[11]": {"tested_on": "P. falciparum male gametocytes", "experiment": "P. falciparum Dual Gamete Formation Assay (Pf DGFA), male readout"}, "[12]": {"tested_on": "P. falciparum female gametocytes", "experiment": "P. falciparum Dual Gamete Formation Assay (Pf DGFA), female readout"}},
  "note": "Where “and” joins values, the source holds several entries; their conditions need not be identical. Equal entries are not always repeated. Where two headings read alike, the source gives them in different places.",
  "data": [
    {"smiles": "CCC1CN2CCc3cc(OC)c(OC)cc3C2CC1CC1NCCc2cc(OC)c(OC)cc21", "note": "(stereo not shown) [TCMDC-125849]", "values": [
      {"measurement": "IC50", "setting": "[1]; 3D7, dose response confirmation, read-out: Pf asexual growth inhibition assays IC50", "value": 42, "unit": "nM"},
      {"measurement": "IC50", "setting": "[1]; 3D7, 72 h, LDH readout, read-out: IC50 Pf Asexual", "value": 41.9, "unit": "nM"},
      {"measurement": "IC50 at 48 h", "setting": "HepG2 cytotoxicity assay", "value": 24000, "unit": "nM"},
      {"measurement": "IC50", "setting": "HepG2 cells [2]; Homo sapiens, HepG2, 48 h, read-out: IC50 HepG2", "value": 24000, "unit": "nM"},
      {"measurement": "Unified cytotox", "setting": "HepG2 cells [2]; human", "value": 14.64, "unit": "µM"},
      {"measurement": "HepG2 cytoxicity", "setting": "HepG2 cells [2]; value reported with the Pb ODA screen, this manuscript", "value": 23.99, "unit": "µM"},
      {"measurement": "IC50", "setting": "[3]", "value": "> 250 nM and 268 nM"},
      {"measurement": "IC50", "setting": "[4]", "value": 120, "unit": "nM"},
      {"measurement": "IC50", "setting": "[5]", "value": 1820, "unit": "nM"},
      {"measurement": "inhibition of oocyst intensity in P. falciparum", "setting": "[6]", "value": 100, "unit": "%"},
      {"measurement": "inhibition of male gametogenesis in P. falciparum", "setting": "[7]", "value": "total inhibition"},
      {"measurement": "HepG2 cytoxicity", "setting": "HepG2 cells [8]; value reported with the Pf FGAA screen, ref Miguel-Blanco et al 2017", "value": 2.24, "unit": "µM"},
      {"measurement": "HepG2 cytoxicity", "setting": "HepG2 cells [8]; value reported with the Pf GCT ATP screen, ref Almela et al 2016", "value": 17.68, "unit": "µM"},
      {"measurement": "inhibition at 1 µM", "setting": "[9]; read-out: % inhibition, Replicate A", "value": 118, "unit": "%"},
      {"measurement": "inhibition at 1 µM", "setting": "[9]; read-out: % inhibition, Replicate B", "value": 98.5, "unit": "%"},
      {"measurement": "IC50", "setting": "[9]; read-out: IC50 Pb ODA, dose response, at least triplicate", "value": 0.268, "unit": "µM"},
      {"measurement": "IC50", "setting": "[9]; read-out: Pb ODA IC50 (µM), this manuscript", "value": 0.27, "unit": "µM"},
      {"measurement": "% inhibition Pb SMFA 1 μM (±SEM)", "setting": "[10]; inhibition of oocyst intensity at 1 μM", "value": 71.4, "unit": "%"},
      {"measurement": "inhibition at 1 µM", "setting": "[10]; read-out: % inhibition Pb SMFA 1 μM (±SEM), inhibition of oocyst intensity at 1 μM", "value": 71.4, "unit": "%"},
      {"measurement": "Pf DGFA Male, Expt 1", "setting": "[11]; 1µM, Expt 1", "value": 77.97},
      {"measurement": "Pf DGFA Male, Expt 2", "setting": "[11]; 1µM, Expt 2", "value": 55.40},
      {"measurement": "Pf DGFA Male, Expt 3", "setting": "[11]; 1µM, Expt 3", "value": 60.36},
      {"measurement": "Pf DGFA Male, Expt 4", "setting": "[11]; 1µM, Expt 4", "value": 68.13},
      {"measurement": "% inhibition Pf DGFA (male) 1 μM (±SEM)", "setting": "[11]; 1 μM, mean of four experiments", "value": 65.46, "unit": "%"},
      {"measurement": "inhibition at 1 µM", "setting": "[11]; Plasmodium falciparum, read-out: % inhibition Pf DGFA (male) 1 μM (±SEM), 1 μM, mean of four experiments", "value": 65.5, "unit": "%"},
      {"measurement": "Pf DGFA Female, Expt 1", "setting": "[12]; 1µM, Expt 1", "value": 99.68},
      {"measurement": "Pf DGFA Female, Expt 2", "setting": "[12]; 1µM, Expt 2", "value": 99.20},
      {"measurement": "Pf DGFA Female, Expt 3", "setting": "[12]; 1µM, Expt 3", "value": 99.79},
      {"measurement": "Pf DGFA Female, Expt 4", "setting": "[12]; 1µM, Expt 4", "value": 98.70},
      {"measurement": "% inhibition Pf DGFA (female) 1 μM (±SEM)", "setting": "[12]; 1 μM, mean of four experiments", "value": 99.34, "unit": "%"},
      {"measurement": "inhibition at 1 µM", "setting": "[12]; Plasmodium falciparum, read-out: % inhibition Pf DGFA (female) 1 μM (±SEM), 1 μM, mean of four experiments", "value": 99.3, "unit": "%"}
    ]}
  ]
}
